# Data reported in patent US20210252120A1, “IMMUNOTHERAPY FOR CANCER” (SOTIO A.S., priority 2016, published 2021).
# What was measured:
# [1] = test system: NK cells (CD3^−CD56^+); assay: Proliferation of NK cells (Ki67+ staining, flow cytometry) in tumor cell suspensions incubated with IL-15; format: cell-based, human
# Protocol: (§1) Tumoral (Tu) and non-tumoral tissue (NTu) were obtained from 82 NSCLC patients undergoing neoadjuvant surgery. The characteristics of NSCLC patients are depicted in Table 2. Tissue samples obtained at the day of surgery were chopped into small pieces and incubated with agitation in RMPI 1640 medium (Gibco) with 100 ng/ml DNAse I and 20 ng/ml Collagenase D (both from Roche) for 45 minutes at 37° C. The cell suspension was then passed through the 100 μm strainer into 50 ml falcon tubes to obtain single cell suspensions. The infiltrated immune cell populations were analyzed by flow cytometry immediately after staining with specific antibodies for 30 min at 4° C. as described below. For further stimulation lymphocytes were counted and seeded into 96-well plates at the concentration of 1×10^6 lymphocytes/nil in RPMI-1640 medium supplemented with 10% heat-inactivated fetal bovine serum (PAA), 2 mM GlutaMAX I CTS (Gibco) and 100 U/ml penicillin+[…] streptomycin (Gibco). Cells were stimulated with 50 ng/ml PMA and 10 ng/ml ionomycin (both from Sigma-Aldrich) for 1 h at 37° C. before Brefeldin A (BioLegend, 1000×) was added for 3 h to detect intracellular IFN-γ in CD8^+ and CD4^+ T cells. In some experiments recombinant IL-15 (Peprotech, 13 ng/ml) was added to the cell culture and the proliferating CD8^+ T cells and NK cells were detected by flow cytometry after 3 and 7 days of incubation at 37° C. Cell viability was detected by DAPI (Thermo Fisher Scientific) or by LIVE/DEAD® Fixable Aqua Dead Cell Stain Kit 405 nm excitation (Invitrogen).
# (§2) Cells were stained extracellularly with the mixture of appropriate antibody in PBS for 30 min at 4° C. For intracellular staining of IFN-γ, Foxp3, CD3 and Ki-67 the cells were fixed for 30 min using Fixation Buffer (eBioscience), permeabilized with Permeabilization Buffer (eBioscience) and stained intracellularly for 30 min at 4° C. Cells were washed with PBS and analyzed by LSRFortessa (BD Biosciences). Data were analyzed with FlowJo software (Tree Star). Flow cytometry data may be expressed as mean fluorescent intensity (MFI).
# (§3) As PMA and ionomycin represent strong unspecific stimulation of immune cells, IL-15 was used to activate predominantly NK cells and CD8^+ T cells, playing a major role in antitumor immunity. Tumor cell suspensions were incubated alone or with IL-15 for 7 days. The proliferation of CD8^+ T cells and NK cells was analyzed on Day 0, 3 and 7 by Ki67^+ staining followed by flow cytometry. Whereas 68% and 79% of T cells and NK cells, respectively, proliferated on Day 3 of incubation in AC tumors, only 23% and 8% of T cells and NK cells, respectively, proliferated in SCC tumors, confirming a higher immunosuppressive environment in SCC than AC tumors (see Table 6).
# [2] = test system: CD8^+ T cells; assay: Proliferation of CD8+ T cells (Ki67+ staining, flow cytometry) in tumor cell suspensions incubated with IL-15; format: cell-based, human
# Protocol: as §1, §2, §3
# [3] = AC tumor cell suspension, Day 3, +IL-15
# [4] = AC tumor cell suspension, Day 7, +IL-15
# [5] = SCC tumor cell suspension, Day 3, +IL-15
# [6] = SCC tumor cell suspension, Day 7, +IL-15
substance,measurement,setting,value
"IL-15: recombinant IL-15 (Peprotech, 13 ng/ml) added to cell culture to activate predominantly NK cells and CD8+ T cells",Ki67^+ cells from CD3^−CD56^+ T cells (NK cells),[1]; [3],79%
same,Ki67^+ cells from CD3^−CD56^+ T cells (NK cells),[1]; [4],50%
same,Ki67^+ cells from CD3^−CD56^+ T cells (NK cells),[1]; [5],8%
same,Ki67^+ cells from CD3^−CD56^+ T cells (NK cells),[1]; [6],40%
same,Ki67^+ cells from CD8^+ T cells,[2]; [3],68%
same,Ki67^+ cells from CD8^+ T cells,[2]; [4],62%
same,Ki67^+ cells from CD8^+ T cells,[2]; [5],23%
same,Ki67^+ cells from CD8^+ T cells,[2]; [6],45%
